Measured values from patent US6686379B2, “Salt form of pantoprazole” (Altana Pharma AG, priority 1998, dated 2004).

Experiment: storage stability of the solid salt forms at 90° C. for 4 days (discoloration, decomposition)
Format: physicochemical

| discoloration or decomposition (4 days at 90° C.) | stability (4 days at 90° C.) | SMILES | stability properties in comparison with other forms (compared with pantoprazole itself, pantoprazole sodium sesquihydrate and pantoprazole sodium monohydrate) | formation of decomposition products (4 days at 90° C.) |
| --- | --- | --- | --- | --- |
| almost no discoloration or decomposition | completely stable | COc1ccnc(C[S+]([O-])c2nc3cc(OC(F)F)ccc3[n-]2)c1OC.COc1ccnc(C[S+]([O-])c2nc3cc(OC(F)F)ccc3[n-]2)c1OC.O.O.[Mg+2] (centres unmarked) [pantoprazole magnesium dihydrate] | very considerably improved stability properties | – |
| turn brown-red | – | COc1ccnc(C[S+]([O-])c2nc3ccc(OC(F)F)cc3[nH]2)c1OC (centres unmarked) [pantoprazole sodium sesquihydrate, sodium[5-[difluoromethoxy]-2-[[3,4-dimethoxy-2-pyridinyl]methyl]sulfinyl]-1H-benzimidazolide]sesquihydrate, reference compound] | – | considerable amounts of decomposition products |
